Data: PubChem BioAssay AID1259407 (Chemical Carcinogenesis Research Information System (CCRIS), 2018)
Active and inactive are the calls of the source. The rule behind the calls is not given here.

Tested on: CCRIS mutagenicity, Ames/micronucleus/aberration tests
Experiment: CCRIS mutagenicity studies
[1] = Test System: AMES SALMONELLA TYPHIMURIUM, Strain/Indicator: TA98, Metabolic Activation: NONE, Method: STANDARD PLATE
[2] = Test System: AMES SALMONELLA TYPHIMURIUM, Strain/Indicator: TA98, Metabolic Activation: RAT, LIVER, S-9, AROCLOR 1254, Method: STANDARD PLATE
[3] = Test System: AMES SALMONELLA TYPHIMURIUM, Strain/Indicator: TA100, Metabolic Activation: NONE, Method: STANDARD PLATE
[4] = Test System: AMES SALMONELLA TYPHIMURIUM, Strain/Indicator: TA100, Metabolic Activation: RAT, LIVER, S-9, AROCLOR 1254, Method: STANDARD PLATE
[5] = Test System: AMES SALMONELLA TYPHIMURIUM, Strain/Indicator: TA1535, Metabolic Activation: NONE, Method: STANDARD PLATE
[6] = Test System: AMES SALMONELLA TYPHIMURIUM, Strain/Indicator: TA1535, Metabolic Activation: RAT, LIVER, S-9, AROCLOR 1254, Method: STANDARD PLATE
[7] = Test System: AMES SALMONELLA TYPHIMURIUM, Strain/Indicator: TA1537, Metabolic Activation: NONE, Method: STANDARD PLATE
[8] = Test System: AMES SALMONELLA TYPHIMURIUM, Strain/Indicator: TA1537, Metabolic Activation: RAT, LIVER, S-9, AROCLOR 1254, Method: STANDARD PLATE
[9] = Test System: AMES SALMONELLA TYPHIMURIUM, Strain/Indicator: TA1538, Metabolic Activation: NONE, Method: STANDARD PLATE
[10] = Test System: AMES SALMONELLA TYPHIMURIUM, Strain/Indicator: TA1538, Metabolic Activation: RAT, LIVER, S-9, AROCLOR 1254, Method: STANDARD PLATE
[11] = Test System: AMES SALMONELLA TYPHIMURIUM, Strain/Indicator: TA97, Metabolic Activation: NONE, Method: STANDARD PLATE

O=c1[nH][nH]c2ccccc12
mutagenic call (Test System: AMES SALMONELLA TYPHIMURIUM, Strain/Indicator: TA98, Metabolic Activation: HAMSTER, LIVER, S-9, AROCLOR 1254, Method: STANDARD PLATE): inactive; negative
mutagenic call [1]: inactive; negative
mutagenic call [2]: inactive; negative
mutagenic call (Test System: AMES SALMONELLA TYPHIMURIUM, Strain/Indicator: TA100, Metabolic Activation: HAMSTER, LIVER, S-9, AROCLOR 1254, Method: STANDARD PLATE): inactive; negative
mutagenic call [3]: inactive; negative
mutagenic call [4]: inactive; negative
mutagenic call (Test System: AMES SALMONELLA TYPHIMURIUM, Strain/Indicator: TA1535, Metabolic Activation: HAMSTER, LIVER, S-9, AROCLOR 1254, Method: STANDARD PLATE): inactive; negative
mutagenic call [5]: inactive; negative
mutagenic call [6]: inactive; negative
mutagenic call (Test System: AMES SALMONELLA TYPHIMURIUM, Strain/Indicator: TA1537, Metabolic Activation: HAMSTER, LIVER, S-9, AROCLOR 1254, Method: STANDARD PLATE): inactive; negative
mutagenic call [7]: inactive; negative
mutagenic call [8]: inactive; negative
mutagenic call (Test System: AMES SALMONELLA TYPHIMURIUM, Strain/Indicator: TA1538, Metabolic Activation: HAMSTER, LIVER, S-9, AROCLOR 1254, Method: STANDARD PLATE): inactive; negative
mutagenic call [9]: inactive; negative
mutagenic call [10]: inactive; negative
mutagenic call (Test System: MOUSE LYMPHOMA, Strain/Indicator: L5178Y (TK+/TK-), Metabolic Activation: NONE, Method: SUSPENSION/PLATE): active; positive. reevaluation of results: positive
mutagenic call (Test System: MOUSE LYMPHOMA, Strain/Indicator: L5178Y (TK+/TK-), Metabolic Activation: RAT, LIVER, S-9, AROCLOR 1254, Method: SUSPENSION/PLATE): inactive; negative. reevaluation of results: negative

CCN(CC)c1cc(NC(C)=O)c(N=Nc2c(Br)cc([N+](=O)[O-])cc2[N+](=O)[O-])cc1OC
mutagenic call [1]: active; positive
mutagenic call [2]: active; positive
mutagenic call (Test System: AMES SALMONELLA TYPHIMURIUM, Strain/Indicator: TA98DNP6, Metabolic Activation: NONE, Method: STANDARD PLATE): inactive; negative
mutagenic call (Test System: AMES SALMONELLA TYPHIMURIUM, Strain/Indicator: TA98DNP6, Metabolic Activation: RAT, LIVER, S-9, AROCLOR 1254, Method: STANDARD PLATE): active; positive
mutagenic call (Test System: AMES SALMONELLA TYPHIMURIUM, Strain/Indicator: TA98NR, Metabolic Activation: NONE, Method: STANDARD PLATE): inactive; negative
mutagenic call (Test System: AMES SALMONELLA TYPHIMURIUM, Strain/Indicator: TA98NR, Metabolic Activation: RAT, LIVER, S-9, AROCLOR 1254, Method: STANDARD PLATE): active; positive
mutagenic call [3]: active; positive
mutagenic call [4]: active; positive
mutagenic call [5]: inactive; negative
mutagenic call [6]: inactive; negative
mutagenic call [7]: active; positive
mutagenic call [8]: active; positive
mutagenic call [9]: active; positive
mutagenic call [10]: active; positive
mutagenic call (Test System: AMES SALMONELLA TYPHIMURIUM, Strain/Indicator: YG1021, Metabolic Activation: NONE, Method: STANDARD PLATE): active; positive
mutagenic call (Test System: AMES SALMONELLA TYPHIMURIUM, Strain/Indicator: YG1021, Metabolic Activation: RAT, LIVER, S-9, AROCLOR 1254, Method: STANDARD PLATE): active; positive
mutagenic call (Test System: AMES SALMONELLA TYPHIMURIUM, Strain/Indicator: YG1024, Metabolic Activation: NONE, Method: STANDARD PLATE): active; positive
mutagenic call (Test System: AMES SALMONELLA TYPHIMURIUM, Strain/Indicator: YG1024, Metabolic Activation: RAT, LIVER, S-9, AROCLOR 1254, Method: STANDARD PLATE): active; positive
mutagenic call (Test System: AMES SALMONELLA TYPHIMURIUM, Strain/Indicator: YG1041, Metabolic Activation: NONE, Method: STANDARD PLATE): active; positive
mutagenic call (Test System: AMES SALMONELLA TYPHIMURIUM, Strain/Indicator: YG1041, Metabolic Activation: RAT, LIVER, S-9, AROCLOR 1254, Method: STANDARD PLATE): active; positive

C1=CC2CCCCC2c2ccccc21 (stereo unspecified)
mutagenic call (Test System: AMES SALMONELLA TYPHIMURIUM, Strain/Indicator: TA98, Metabolic Activation: RAT, LIVER, S-9, SODIUM PHENOBARBITAL AND BETA-NAPHTHOFLAVONE, Method: STANDARD PLATE): active; positive
mutagenic call (Test System: AMES SALMONELLA TYPHIMURIUM, Strain/Indicator: TA100, Metabolic Activation: RAT, LIVER, S-9, SODIUM PHEOBARBITAL AND BETA-NAPHTHOFLAVONE, Method: STANDARD PLATE): active; positive

NN(c1ccccc1)c1ccccc1
mutagenic call [11]: inactive; negative
mutagenic call (Test System: AMES SALMONELLA TYPHIMURIUM, Strain/Indicator: TA97, Metabolic Activation: RAT, LIVER, S-9, AROCLOR 1254, Method: STANDARD PLATE): inactive; negative
mutagenic call [3]: inactive; negative
mutagenic call [4]: inactive; negative

CC(C)(C)N(Cc1ccccc1)CC(O)c1ccc(O)c(CO)c1 (stereo unspecified)
mutagenic call (Test System: AMES SALMONELLA TYPHIMURIUM, Strain/Indicator: TA98(PKM101), Metabolic Activation: NONE, Method: STANDARD PLATE): inactive; negative
mutagenic call (Test System: AMES SALMONELLA TYPHIMURIUM, Strain/Indicator: TA100(PKM101), Metabolic Activation: NONE, Method: STANDARD PLATE): active; positive
mutagenic call [5]: inactive; negative
mutagenic call [9]: inactive; negative

ONc1ccc(Cl)c(Cl)c1
mutagenic call [11]: inactive; negative
mutagenic call [1]: inactive; negative
mutagenic call [3]: inactive; negative
mutagenic call (Test System: AMES SALMONELLA TYPHIMURIUM, Strain/Indicator: TA104, Metabolic Activation: NONE, Method: STANDARD PLATE): inactive; negative
mutagenic call (Test System: CHINESE HAMSTER OVARY, Strain/Indicator: CHO-K1-BH4 (HGPRT), Metabolic Activation: NONE): inactive; negative

O=C(O)CCC(=O)O
mutagenic call (Test System: AMES SALMONELLA TYPHIMURIUM, Strain/Indicator: TA97, Metabolic Activation: NONE, Method: PREINCUBATION): inactive; negative
mutagenic call (Test System: AMES SALMONELLA TYPHIMURIUM, Strain/Indicator: TA97, Metabolic Activation: RAT, LIVER, S-9, AROCLOR 1254, Method: PREINCUBATION): inactive; negative
mutagenic call (Test System: AMES SALMONELLA TYPHIMURIUM, Strain/Indicator: TA102, Metabolic Activation: NONE, Method: PREINCUBATION): inactive; negative
mutagenic call (Test System: AMES SALMONELLA TYPHIMURIUM, Strain/Indicator: TA102, Metabolic Activation: RAT, LIVER, S-9, AROCLOR 1254, Method: PREINCUBATION): inactive; negative

O=C(O)/C(Cl)=C(/C(=O)O)C(Cl)Cl
mutagenic call [11]: inactive; negative
mutagenic call (Test System: AMES SALMONELLA TYPHIMURIUM, Strain/Indicator: TA97, Metabolic Activation: RAT, LIVER, S-9, PHENOBARBITAL, Method: STANDARD PLATE): inactive; negative
mutagenic call [1]: inactive; negative
mutagenic call [2]: inactive; negative
mutagenic call (Test System: AMES SALMONELLA TYPHIMURIUM, Strain/Indicator: TA98, Metabolic Activation: RAT, LIVER, S-9, PHENOBARBITAL, Method: STANDARD PLATE): inactive; negative
mutagenic call [4]: inactive; negative
mutagenic call (Test System: AMES SALMONELLA TYPHIMURIUM, Strain/Indicator: TA100, Metabolic Activation: RAT, LIVER, S-9, PHENOBARBITAL, Method: STANDARD PLATE): inactive; negative
mutagenic call (Test System: AMES SALMONELLA TYPHIMURIUM, Strain/Indicator: TA102, Metabolic Activation: NONE, Method: STANDARD PLATE): inactive; negative
mutagenic call (Test System: AMES SALMONELLA TYPHIMURIUM, Strain/Indicator: TA102, Metabolic Activation: RAT, LIVER, S-9, AROCLOR 1254, Method: STANDARD PLATE): inactive; negative

COC12OOC1(C)Oc1ccccc12 (stereo unspecified)
mutagenic call (Test System: AMES SALMONELLA TYPHIMURIUM, Strain/Indicator: TA100, Metabolic Activation: NONE, Method: PREINCUBATION): active; positive
